Entries after “also recorded” stand apart in the source; their conditions may differ.
Legend:
healthy men = assay: Study Compound 1-002: single ascending-dose (SAD) trial in healthy volunteers; assay type: in vivo, human
Description: Three clinical studies have investigated the safety and tolerability of Compound 1 to date; conduct of 2 studies has completed and 1 study is ongoing. A double-blind, placebo-controlled, single ascending-dose study (SAD) (Compound 1-002) was conducted in healthy men. Subjects received single doses ranging from 1 mg to 48 mg. Conduct of an open-label sequential-group SAD study in subjects with clinically stable HCM (Compound 1-001) is also complete; single doses of up to 144 mg were administered. In addition, a double-blind, placebo-controlled, multiple ascending-dose (MAD) study (Compound 1-003) is being conducted in which healthy adult subjects have received multiple doses of Compound 1 up to 25 mg once daily (QD) for up to 28 days.
In Study Compound 1-002, single doses from 1 mg to 48 mg were administered as an oral suspension to healthy men. […] Single doses of ≥12 mg of Compound 1 were associated with detectable reductions in LV contractility from baseline as assessed by 3 independent echocardiographic measures (left ventricular ejection fraction [LVEF], LV fractional shortening (LVFS), and LVOT velocity time integral [VTI]). At the highest dose studied in healthy subjects (48 mg), mean reduction in LVEF at any time point was −6% relative to baseline.

[1] = system: subjects with symptomatic HCM and LVOT obstruction; assay: Phase 2 open-label pilot study Pioneer-HCM-A (Cohort A); assay type: in vivo, human; settings: for Lateral e′ Week 12: baseline 6.9 ± 1.9; for E/e′ Week 12: baseline 12.9 ± 3.3
From the text: This is a phase 2 open-label pilot study to evaluate the efficacy, PK, PD, safety, and tolerability of Compound 1 in subjects with symptomatic HCM and LVOT obstruction. Approximately 10 adult subjects with symptomatic HCM, a resting LVOT gradient ≥30 mm Hg, and post-exercise peak LVOT gradient ≥50 mm Hg will be enrolled. The study will have a 12-week treatment phase and a 4-week washout phase (FIG. 3).
At Screening, subjects will undergo transthoracic echocardiography (TTE) in the supine or left lateral decubitus position. In addition to a standardized complete TTE, both resting instantaneous peak LVOT gradient (baseline) and provoked peak LVOT gradient will be collected. Subjects will then undergo a standard symptom-limited exercise test (hemodynamic stress echocardiography). Subjects will be assessed systematically for symptoms of dyspnea and/or angina. Instantaneous peak LVOT gradient will be assessed immediately post-exercise by TTE.
On Day 1, resting TTE will be performed, blood samples will be drawn for PK, and subjects will have an assessment of pVO2, VE/VCO2, and other variables via cardiopulmonary exercise testing (CPET). After CPET, subjects will be dosed with open-label oral Compound 1 at the investigational site and will be observed for at least 1 hour after dosing, with assessment of vital signs and ECGs at 1 hour postdose. Subjects will then be supplied with Compound 1 sufficient for QD dosing at home.
Subjects will be evaluated at the investigational site at Weeks 1, 2, 3, 4, 5, 6, 7, 8, 12, and 16. At each of these visits, resting TTE will be performed and blood samples will be drawn for PK. On study visit days, study medication will be administered at the investigational site in order to collect blood samples for PK about 2 hours prior to dosing. At Weeks 4, 12, and 16, hemodynamic stress echocardiography will be performed and peak LVOT gradient will be assessed. CPET will be conducted between Weeks 10 and 12 (inclusive).
The Compound 1 starting dose will be 10 mg for subjects who weigh […] 60 kg and 15 mg for subjects who weigh >60 kg. At the end of Week 4 (Day 28), each subject's LVEF will be evaluated, and the subject's dose may be increased, decreased, or remain unchanged based on the predetermined criteria in Table 6, in consultation between the investigator and the medical monitor. If Compound 1 plasma concentration exceeds 750 ng/mL at Week 2, no dose increase is allowed, regardless of LVEF data at Week 4; however, dose decrease per LVEF data is allowed in this circumstance. The subject will subsequently receive that dose from Week 5 through Week 12.
The following results were obtained generally following the procedures described in Example 3. Each subject in the following trials discontinued β-blocker, calcium-channel blocker, and/or disopyramide therapy at least 14 days prior to the screening visit.

[2] = Cohort A (10-15 mg/day), N = 10, mean ± SD
[3] = Cohort A, baseline to Week 12, n 10

CC(C)n1c(=O)cc(N[C@@H](C)c2ccccc2)[nH]c1=O [Compound 1, (S)-3-Isopropyl-6-((1-phenylethyl)amino) pyrimidine-2, 4(1H,3H)-dione]
Responders % (healthy men; 12 mg single dose cohort): 50%
Responders n (healthy men; 12 mg single dose cohort): 3/6
Responders % (healthy men; 24 mg single dose cohort): 83%
Responders n (healthy men; 24 mg single dose cohort): 5/6
Responders % (healthy men; 48 mg single dose cohort): 100%
Responders n (healthy men; 48 mg single dose cohort): 6/6
mean reduction in LVEF at any time point relative to baseline (healthy men; 48 mg single dose, healthy subjects): −6%
single dose associated with detectable reductions in LV contractility from baseline (healthy men; 3 echocardiographic measures (LVEF, LVFS, LVOT VTI), healthy men): ≥ 12 mg
changes in systolic blood pressure or heart rate (healthy men; any dose level 1 mg to 48 mg): No changes in systolic blood pressure (BP) or heart rate (HR) were detected
incidence of treatment-emergent AEs versus dose (healthy men; single doses 1 mg to 48 mg): did not appear to increase with dose
tolerability (healthy men; single doses 1 mg to 48 mg, oral suspension, healthy men): well tolerated, with no serious adverse events (SAEs), deaths, or withdrawals from study due to adverse events (AEs) reported
LV filling pressure and diastolic wall stress ([1]; 15 mg/day, oHCM patients): improvement in LV filling pressure (reduced E/e′) and diastolic wall stress (reduced NTpro-BNP)
LVOT gradient ([1]; 15 mg/day, oHCM patients): eliminates LVOT gradient
resting LV systolic function ([1]; 15 mg/day, oHCM patients): decreases resting LV systolic function
resting LVOT gradient ([1]; 10, 15 or 20 mg, weeks 0 to 12): abolished as early as week 1 in most subjects and by week 2 in all subjects
change in LVEF (stress ejection fraction) ([1]; 10 or 15 mg, weeks 0, 4 and 12): minimal change
stress LVOT gradient ([1]; 10 or 15 mg, weeks 0, 4 and 12): abolished
Resting LVEF Week 12 ([1]; Cohort A (10-15 mg/day), LVEF N = 4, mean ± SD, baseline 70 ± 6): 54 ± 12%
Post-exercise LVEF Week 12 ([1]; Cohort A (10-15 mg/day), LVEF N = 4, mean ± SD, baseline 76 ± 5): 60 ± 22%
Septal e′ Week 12 ([1]; Cohort A (10-15 mg/day), N = 10, mean ± SD, baseline 5 4 ± 1 6): 6.4 ± 1.5 cm/s
Mean e′ Week 12 ([1]; Cohort A (10-15 mg/day), N = 10, mean ± SD, baseline 5.7 ± 1.2): 7.4 ± 1.6 cm/s
Lateral e′ Week 12 [1, 2]: 8.8 ± 1.6 cm/s
E/e′ Week 12 [1, 2]: 9.1 ± 2.1
Resting Gradient Week 12 ([1]; Cohort A (10-15 mg/day), N = 10, mean ± SD, baseline 68 ± 34): 14 ± 25 mm Hg
Post-exercise Gradient Week 12 ([1]; Cohort A (10-15 mg/day), N = 10, mean ± SD, baseline 125 ± 60): 19 ± 13 mm Hg
NT-pro BNP Week 12 ([1]; Cohort A (10-15 mg/day), N = 10, mean ± SD, baseline 939 ± 647): 235 ± 417 pg/mL
E/e′ Delta ([1]; Cohort A, baseline to Week 12, n 8): −3.6 ± 3.7
Lateral e′ Delta ([1]; Cohort A, baseline to Week 12, n 9): 1.6 ± 1.9 cm/s
Dyspnea score Delta [1, 3]: −3.1 ± 1.4
LA Vol (index) Delta [1, 3]: 1 ± 7 mL/m^2
NT-proBNP Delta [1, 3]: −459 ± 722
LVEDV Delta ([1]; Cohort A, baseline to Week 12, n 11): 16 ± 21
Dyspnea score Week 12 ([1]; Cohort A, baseline 4.9 ± 1.6, n 10): 1.7 ± 1.8
Lateral e′ Week 12 ([1]; Cohort A, n 9): 8.7 ± 1.6 cm/s
E/e′ Week 12 ([1]; Cohort A, n 8): 9.1 ± 2.2
LA Vol (index) Week 12 ([1]; Cohort A, baseline 30 ± 10, n 10): 31 ± 8 mL/m^2
LVEDV Week 12 ([1]; Cohort A, baseline 82 ± 24, n 11): 97 ± 24
NT-proBNP Week 12 ([1]; Cohort A, baseline 930 ± 647, n 10): 454 ± 551
dyspnea symptom score ([1]; Day 1 to Week 16, dosing through week 12): improves with Compound 1 administration, returning after cessation of therapy; also recorded: improve
resting LVEF versus Compound 1 concentration ([1]; FIG. 8): exposure-dependent decrease
increase in exercise capacity (pVO2) versus change in LVEF ([1]; FIG. 14): greatest in patients with the least decrease in LVEF
oHCM phenotype after cessation (resting LVOT gradient, resting LVEF) ([1]; administration stopped after week 12): returns after cessation of Compound 1
most robust improvements in pVO2 ([1]; associated with minimal change in resting LVEF): > 3 mL/min/kg
peak VO2 during CPET ([1]; baseline versus week 12): improves CPET metric; also recorded: improve
peak circulatory power during CPET ([1]; baseline versus week 12): improves CPET metric; also recorded: improve
tolerability ([1]; doses up to 20 mg QD): well tolerated
Compound 1 concentration associated with reduction of resting gradient below hemodynamic significance ([1]; plasma): > 225 ng/mL
NT-proBNP levels ([1]; weeks 0, 4, 8 and 12): reduced after 4 weeks of Compound 1 but can rebound with higher exposures
NYHA Class ([1]; with Compound 1 therapy): improve

— patent US20240423981A1, “TREATMENT OF HCM WITH PYRIMIDINEDIONE COMPOUNDS” (MyoKardia, Inc., priority 2017, published 2024)
